Test results from patent publication US6946472B2, “Polycyclic compounds exhibiting anti-tumor activities” (Hoffman-La Roche Inc., priority 2002, dated 2005).

The molecules below were run on HCT116 cell line (colorectal cancer) (assay: Anti-proliferative activity assay (WST-8)). Conditions: Homo sapiens, HCT-116, 96 h; in vitro growth of HCT116, 4 days incubation, WST-8, concentration yielding 50% OD of control growth.
Format: cell-based
Description: A single suspension of tumor cells was inoculated to the serially diluted 96-well microtestplate. Then the testplate was incubated in the 5% CO2 ambience at 37° C. for 4 days (2-3×10^3 cells/well). The degree of cell growth in a monolayer was measured by using WST-8 (Dojindo, Japan). IC50 values of the polycyclic compounds directed against tumor cells were calculated as the concentration of drug yielding 50% OD of the control growth.
The anti-tumor activity of polycyclic compounds of the formula [I] against in vitro growth of HCT116 cell line (colorectal cancer) is summarized in Table 1.
`CN(CCCN(C)CCNc1nc2ccccc2c2c1C(=O)c1ccncc1-2)CCNc1nc2ccccc2c2c1C(=O)c1ccncc1-2` [Example 10, 6-{2-[methyl-(3-{methyl-[2-(7-oxo-7H-5,10-diaza-benzo[c]fluoren-6-ylamino)-ethyl]-amino}-propyl)-amino]-ethylamino}-5,10-diaza-benzo[c]fluoren-7-one] gave an IC50 of 0.3 nM. `CN(C)CCNc1nc2cc(O)ccc2c2c1C(=O)c1ccccc1-2` [Reference compound, 6-(2-dimethylamino-ethylamino)-3-hydroxy-7H-indeno[2,1-c]quinolin-7-one, reference compound] showed an IC50 of 12 nM. For `CN(CCCN(C)CCNc1nc2cc(Cl)ccc2c2c1C(=O)c1cnccc1-2)CCNc1nc2cc(Cl)ccc2c2c1C(=O)c1cnccc1-2` [Example 6, 3-chloro-6-{2-[(3-{[2-(3-chloro-7-oxo-7H-5,9-diaza-benzo[c]fluoren-6-ylamino)-ethyl]-methyl-amino}-propyl)-methyl-amino]-ethylamino}-5,9-diaza-benzo[c]fluoren-7-one], the IC50 was 0.02 nM. `CN(CCCN(C)CCNc1nc2ccccc2c2c1C(=O)c1ccncc1-2)CCNc1nc2ccccc2c2c1C(=O)c1cnccc1-2` [Example 15, 6-{2-[methyl-(3-{methyl-[2-(7-oxo-7H-5,10-diaza-benzo[c]fluoren-6-ylamino)-ethyl]-amino}-propyl)-amino]-ethylamino}-5,9-diaza-benzo[c]fluoren-7-one] was tested, and the IC50 was 0.13 nM. Work on `COc1ccc2c3c(c(NCCN(C)CCCN(C)CCNc4nc5ccccc5c5c4C(=O)c4cnccc4-5)nc2c1)C(=O)c1cnccc1-3` [Example 16, 3-methoxy-6-{2-[methyl-(3-{methyl-[2-(7-oxo-7H-5,9-diaza-benzo[c]fluoren-6-ylamino)-ethyl]-amino}-propyl)-amino]-ethylamino}-5,9-diaza-benzo[c]fluoren-7-one] yielded an IC50 of 0.08 nM. `CN(CCCN(C)CCNc1nc2ccccc2c2c1C(=O)c1cnccc1-2)CCNc1nc2ccccc2c2c1C(=O)c1cnccc1-2` [Example 5, 6-{2-[methyl-(3-{methyl-[2-(7-oxo-7H-5,9-diaza-benzo[c]fluoren-6-ylamino)-ethyl]-amino}-propyl)-amino]-ethylamino}-5,9-diaza-benzo[c]fluoren-7-one] gave an IC50 of 0.64 nM.
